Columns and labels:
[1] = system: bicistronic HCV replicon (replicon RNA, GenBank Accession No. AJ242654); experiment: HCV Replicon Assay; format: cell-based; settings: Hepatitis C virus, 72 h, read-out: Replicon IC50

| SMILES | melting point [°C] | IC50 [1] [nM] |
| --- | --- | --- |
| CC(C)NS(=O)(=O)c1cnc(-c2c(C#N)c3ccc(C4CC4)cc3n2C2CCC2)nc1 [compound 71, 2-(3-cyano-1-cyclobutyl-6-cyclopropyl-1H-indol-2-yl)-N-(propan-2-yl)pyrimidine-5-sulfonamide] | 192 to 193 | < 500 |
| Cc1ccc2c(C#N)c(-c3ncc(S(=O)(=O)NC(C)C)cn3)n(C3CCCC3)c2c1 [compound 74, 2-(3-cyano-1-cyclopentyl-6-methyl-1H-indol-2-yl)-N-(propan-2-yl)pyrimidine-5-sulfonamide] | 213 to 214 | < 500 |
| CCc1ccc2c(C#N)c(-c3ccc(S(=O)(=O)NC(C)C)cn3)n(C(C)C)c2c1 [compound 75, 6-[3-cyano-6-ethyl-1-(propan-2-yl)-1H-indol-2-yl]-N-(propan-2-yl)pyridine-3-sulfonamide] | 185 to 186 | < 500 |
| Cc1ccc2c(C#N)c(-c3ccc(S(=O)(=O)NC(CF)CF)cn3)n(C(C)C)c2c1 [compound 80, 6-[3-cyano-6-methyl-1-(propan-2-yl)-1H-indol-2-yl]-N-(1,3-difluoropropan-2-yl)pyridine-3-sulfonamide] | 188 to 195 | < 500 |
| Cc1ccc2c(C#N)c(-c3ccc(S(=O)(=O)NC(CF)CF)cn3)n(CC3CC3)c2c1 [compound 81, 6-[3-cyano-1-(cyclopropylmethyl)-6-methyl-1H-indol-2-yl]-N-(1,3-difluoropropan-2-yl)pyridine-3-sulfonamide] | 175 to 182 | < 500 |
| CC(C)n1c(-c2ccc(S(=O)(=O)NC(CF)CF)cn2)c(C#N)c2ccc(C3CC3)cc21 [compound 83, 6-[3-cyano-6-cyclopropyl-1-(propan-2-yl)-1H-indol-2-yl]-N-(1,3-difluoropropan-2-yl)pyridine-3-sulfonamide] | 184 to 190 | < 500 |
| N#Cc1c(-c2ccc(S(=O)(=O)NC(CF)CF)cn2)n(C2CCCC2)c2cc(C3CC3)ccc12 [compound 85, 6-(3-cyano-1-cyclopentyl-6-cyclopropyl-1H-indol-2-yl)-N-(1,3-difluoropropan-2-yl)pyridine-3-sulfonamide] | 194 to 200 | < 500 |
| CC(NS(=O)(=O)c1ccc(-c2c(C#N)c3ccc(C4CC4)cc3n2C2CCCC2)nc1)C(F)(F)F (stereo not drawn) [compound 86, 6-(3-cyano-1-cyclopentyl-6-cyclopropyl-1H-indol-2-yl)-N-(1,1,1-trifluoropropan-2-yl)pyridine-3-sulfonamide] | 166 to 170 | < 500 |
| N#Cc1c(-c2ccc(S(=O)(=O)NC(CF)CF)cn2)n(C2CCCC2)c2c(F)cccc12 [compound 87, 6-(3-cyano-1-cyclopentyl-7-fluoro-1H-indol-2-yl)-N-(1,3-difluoropropan-2-yl)pyridine-3-sulfonamide] | 128 to 129 | < 500 |
| N#Cc1c(-c2ccc(S(=O)(=O)NC(CF)CF)cn2)n(C2CCCCC2)c2cc(Cl)ccc12 [compound 89, 6-(6-chloro-3-cyano-1-cyclohexyl-1H-indol-2-yl)-N-(1,3-difluoropropan-2-yl)pyridine-3-sulfonamide] | 203 to 207 | < 500 |
| N#Cc1c(-c2ccc(S(=O)(=O)NC(CF)CF)cn2)n(C2CCCCC2)c2cc(C3CC3)ccc12 [compound 92, 6-(3-cyano-1-cyclohexyl-6-cyclopropyl-1H-indol-2-yl)-N-(1,3-difluoropropan-2-yl)pyridine-3-sulfonamide] | 193 to 198 | < 500 |
| N#Cc1c(-c2ccc(S(=O)(=O)NC3(C(F)(F)F)CC3)cn2)n(C2CCCC2)c2cc(OC(F)F)ccc12 [compound 94, 6-[3-cyano-1-cyclopentyl-6-(difluoromethoxy)-1H-indol-2-yl]-N-[1-(trifluoromethyl)cyclopropyl]pyridine-3-sulfonamide] | 186 to 193 | < 500 |

— patent US8735414B2 (priority 2009, dated 2014)
